Measured values taken from PMC7340446, “Optimization of PTH/PTHrP Hybrid Peptides to Derive a Long‐Acting PTH Analog (LA‐PTH)” (JBMR Plus, 2020).
Where no end group is shown, it is not given here.

Experiments:
[1] = molecular target: T1, human PTHR1 (R^0 conformation) (Homo sapiens, UniProt Q03431); assay: Competition binding to the R^0 conformation of PTHR1
T1 construct: expressed in transfected cells; host or cells: COS-7 cells (transient transfection; membranes)
T1 sequence (Q03431 27-593): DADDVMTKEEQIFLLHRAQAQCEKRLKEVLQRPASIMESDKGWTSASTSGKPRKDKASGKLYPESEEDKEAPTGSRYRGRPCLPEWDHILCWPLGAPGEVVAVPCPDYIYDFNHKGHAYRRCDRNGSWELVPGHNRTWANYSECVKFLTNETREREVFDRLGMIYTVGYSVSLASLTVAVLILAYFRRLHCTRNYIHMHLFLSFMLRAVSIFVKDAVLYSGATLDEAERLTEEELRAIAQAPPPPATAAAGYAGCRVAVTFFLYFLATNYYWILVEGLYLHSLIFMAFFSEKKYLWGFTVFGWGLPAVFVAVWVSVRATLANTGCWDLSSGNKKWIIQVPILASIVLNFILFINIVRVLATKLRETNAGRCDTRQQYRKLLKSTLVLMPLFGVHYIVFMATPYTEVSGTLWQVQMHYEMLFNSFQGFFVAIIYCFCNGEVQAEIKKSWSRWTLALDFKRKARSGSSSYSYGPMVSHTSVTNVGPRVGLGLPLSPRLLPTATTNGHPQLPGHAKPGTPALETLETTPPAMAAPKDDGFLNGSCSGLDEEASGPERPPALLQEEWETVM

[2] = molecular target: T2, human PTHR1 (RG conformation) (Homo sapiens, UniProt Q03431); assay: Competition binding to the RG conformation of PTHR1
T2 construct: expressed in transfected cells; host or cells: COS-7 cells (transient co-transfection; membranes)
T2 sequence (Q03431 27-593): T1 sequence (Q03431 27-593)

human PTHR1 = molecular target: T3, human PTHR1 (Homo sapiens, UniProt Q03431); assay: GloSensor cAMP signaling assay in GP‐2.3 cells; assay type: cell-based
T3 construct: expressed in transfected cells
T3 sequence (Q03431 27-593): T1 sequence (Q03431 27-593)
Protocol: GP‐2.3 cells, an HEK‐293 cell‐ (ATCC CRL‐1573) derived cell line that stably expresses the luciferase‐based pGloSensor‐22F (GloSensor) cAMP reporter plasmid (Promega Corp., […], USA) along with the human PTHR1, were cultured in DMEM (Thermo Fisher Scientific, Waltham, MA, USA) supplemented with FBS (10%). Cells were seeded into white 96‐well plates for GloSensor cAMP assays, and used for assay 2 to 3 days after the monolayer became confluent.16 UGS‐56 cells were derived from the UMR106 rat osteoblastic cell line by stably transfecting the cells to express the GloSensor‐cAMP reporter. B64 cells are a derivative of the porcine kidney cell line, LLC‐PK1 that stably expresses the human PTHR1. COS‐7 cells (ATCC CRL‐1661) were seeded into 10‐cm dishes and transiently transfected to express the human PTHR1 with or without a high‐affinity, negative‐dominant Gαs subunit; 2 days after transfection, the cells were harvested for membrane preparations.13 All transfections were performed using the Fugene HD reagent (Promega Corp.).
Changes in cAMP levels were assessed in intact GP‐2.3 or UGS‐56 cells via the (GloSensor) cAMP reporter. The intact cells in white 96‐well plates were preloaded with luciferin in CO2‐independent culture media (Thermo Fisher) for 20 min at room temperature, then treated with a test ligand diluted in the same media and placed into a Envision plate reader (PerkinElmer, Waltham, MA, USA) for an additional 30 min, during which time cAMP‐dependent luminescence was measured at 2‐min intervals (ligand‐on phase). […] For washout responses, the cells were treated as above, and after the ligand‐on phase, the plate was removed from the plate reader, the cells were rinsed with media, then fresh media containing only luciferin was added and luminescence was measured for an additional 90 min (washout phase). EC50 values were determined using the 4‐parameter sigmoidal dose–response equation in Prism 8.0 (GraphPad Software, Inc., La Jolla, CA, USA).
The cells were then removed from the plate reader, rinsed twice with media to remove unbound ligand, and then fresh media containing luciferin but lacking ligand was added and luminescence was assessed for additional 90 min (Ligand wash‐out phase). Data are means (± SEM) of four experiments, each performed in triplicate. Figure S2. […] Panels A‐C represent three separate experiments. […] Figure S3. […] Serum and urine samples obtained from the TPTX and sham control rats of the two‐week daily‐administration experiment shown in Figure 4 were analyzed by ELISA for the indicated markers. A) serum 1,25(OH)2Vitamin‐D3. B) urinary deoxypyridinoline (DpD)/Cre. C) serum FGF23. […] Serum and urine samples obtained from the TPTX and sham control rats of the two‐week daily‐administration experiment shown in Figure 4 were analyzed for total inorganic phosphorus (Pi). […] Figure S5. […] B) The same peptides were assessed at a concentration of 3 nM for the capacity to stimulate cAMP formation in HKRK‐B64 cells (LLC‐PK1 cells stably expressing the hPTHR1, cAMP measured by RIA). […] Data in A and B are means (±SEM) of three experiments, each performed in triplicate or quadruplicate. […] D) The same analogs as in C were assessed at a 3.0 nM concentration for the capacity to stimulate cAMP formation in HKRK‐B64 cells. Data are means (±SEM) of three experiments, each performed in duplicate. […] Data are means (±SEM) of duplicate determinations of a single experiment representative of three others. Click here for additional data file.

Row | Sequence | IC50 [1] [nM] | IC50 [2] [nM] | Emax (human PTHR1) [%]
1 | AVAEIQLMHQRAKWLNSLRRRFFLHHLIAEIHTAEI [M‐PTH(1‐17)/PTHrP(18‐36)] | 1.91 ± 0.39 | 0.23 ± 0.02 | 105 ± 5
2 | AVAEIQLMHQRAKWLNSMERVEFLHHLIAEIHTAEI [M‐PTH(1‐22)/PTHrP(23‐36)] | 7.8 ± 2.55 | 0.67 ± 0.02 | 104 ± 4
3 | AVAEIQLMHQRAKWLNSMERVEWLRKKLQDIHTAEI [M‐PTH(1‐30)/PTHrP(31‐36)] | 2.98 ± 0.48 | 0.21 ± 0.03 | 106 ± 4
4 | AVAEIQLMHQRAKWLNSMERVEWLRKLIAEIHTAEI [M‐PTH(1‐26)/PTHrP(27‐36)] | 1.73 ± 0.75 | 0.13 ± 0.04 | 106 ± 5
5 | AVAEIQLMHQRAKWLNSMRRRFFLHHLIAEIHTAEI [M‐PTH(1‐18)/PTHrP(19‐36)] | 1.66 ± 0.22 | 0.13 ± 0.02 | 107 ± 5
6 | AVAEIQLMHQRGKSIQDLRRRFFLHHLIAEIHTAEI [M‐PTH(1‐11)/PTHrP(12‐36)] | 2.14 ± 0.47 | 0.55 ± 0.15 | 103 ± 3
